Reference: patent publication US10107817B2, “Oligopeptide specific to ovarian cancer, polynucleotide for encoding oligopeptide, test kit for detecting ovarian cancer and method for detecting ovarian cancer” (NATIONAL TSING HUA UNIVERSITY, priority 2016, dated 2018)

How the values were obtained:
[1] = system: OVCAR3 cell; assay: Binding of the FAM-labelled oligopeptide to ovarian cancer cells, fluorescence microscopy; set-up: species or system human; details: 12-well plate, 1×10^5 cells/well, 60 rpm, 60 minutes, room temperature, FIG. 3
Excerpt: (§1) In subsequent examples, the oligopeptide of the present disclosure is used to detect whether the sample has the oligopeptide-cancer cell complex. The oligopeptide consisted of the amino acid sequence of SEQ ID NO: 1 is chemically synthesized and modified a green fluorescence (FAM) at N-terminus in subsequent examples.
(§2) The sample uses in this example is the ovarian cancer cell, wherein the ovarian cancer cell is OVCAR3 cell (a human serous epithelial ovarian cancer cell line). Besides, a normal cervical epithelial cell is used as the control. The OVCAR3 cell and the normal cervical epithelial cell are cultured and stored in Department of Obstetrics and Gynecology of National Cheng Kung University Hospital. The OVCAR3 cell and the normal cervical epithelial cell are respectively seeded in a 12-well plate with 1×10^5 cells/well and then maintained at 37° C. in a humidified atmosphere of 5% CO2 until the cells are adhered in the next day. The oligopeptide modified with the green fluorescence is respectively mixed with different groups of the sample at 60 rpm for 60 minutes at room temperature. The sample is washed several times with the PBS containing 1% BSA. Then the sample is observed under a fluorescence microscopy, wherein the green fluorescent signal represents that the oligopeptide-cancer cell complex is presented in the sample.

[2] = system: normal cervical epithelial cell; assay: Binding of the FAM-labelled oligopeptide to control cells, fluorescence microscopy; details: 12-well plate, 1×10^5 cells/well, 60 rpm, 60 minutes, room temperature, FIG. 3
Excerpt: as §1, §2

[3] = system: normal ovarian tissue section; assay: Binding of the FAM-labelled oligopeptide to control tissue section, fluorescence microscopy; details: 60 rpm, 60 minutes, room temperature, FIG. 2
Excerpt: as §1
(§3) The sample uses in this example is the ovarian cancer tissue including an ovarian serous tumor tissue section, an ovarian mucinous tumor tissue section and an ovarian clear cell carcinoma tissue section. Besides, a normal ovarian tissue section is used as a control. The oligopeptide modified with the green fluorescence is respectively mixed with different groups of the sample at 60 rpm for 60 minutes at room temperature. The samples are washed several times with PBS containing 1% BSA. Then the sample is observed under a fluorescence microscopy, wherein the green fluorescent signal represents that the oligopeptide-cancer cell complex is presented in the sample.

[4] = system: ovarian mucinous tumor tissue section; assay: Binding of the FAM-labelled oligopeptide to ovarian cancer tissue sections, fluorescence microscopy; details: 60 rpm, 60 minutes, room temperature, FIG. 2
Excerpt: as §1, §3

[5] = system: ovarian serous tumor tissue section; assay: as above; details: 60 rpm, 60 minutes, room temperature, FIG. 2
Excerpt: as §1, §3

[6] = system: ovarian clear cell carcinoma tissue section; assay: as above; details: 60 rpm, 60 minutes, room temperature, FIG. 2
Excerpt: as §1, §3

oligopeptide of the present disclosure: oligopeptide consisted of the amino acid sequence of SEQ ID NO: 1, chemically synthesized, specific to ovarian cancer (KRLTPLSPDHYD)
FAM signal (oligopeptide-cancer cell complex) [1]: FAM signal can be detected | FAM signal (oligopeptide-cancer cell complex) [2]: no significant FAM signal detected | green fluorescent signal (oligopeptide-cancer cell complex) [3]: no significant green fluorescent signal detected | green fluorescent signal (oligopeptide-cancer cell complex) [4]: green fluorescent signal can be detected | green fluorescent signal (oligopeptide-cancer cell complex) [5]: green fluorescent signal can be detected | green fluorescent signal (oligopeptide-cancer cell complex) [6]: green fluorescent signal can be detected
